In patent US20020119178A1 (priority 2001, published 2002):
Where two headings read alike, the source gives them in different places. Starred links: 1 amine or outer side, 2 acyl side, 3 side chain; linkers in the order of their positions; H or OH if unused. Positions of bridges follow the written chain, without caps; N, C: chain ends. Non-standard residues stand in square brackets, D forms with d. Residues, ends and D or L forms follow the SMILES beside them. Chains are numbered I, II in the order given. Actinocin(9to1) = Cc1c2oc3c(C)ccc(C(=O)[*:1])c3nc-2c(C(=O)[*:2])c(N)c1=O; NMeV = CN[C@H](C(=O)O)C(C)C; Sar = CNCC(=O)O

How the values were obtained:
[1] = system: human saphenous vein smooth muscle cells (HSV-SMC); experiment: HSV-SMC proliferation assay (MTS), drugs at known concentrations; format: cell-based; conditions: read-out: IC50 (concentration at which the proliferation is reduced by 50%)
Protocol: (§1) A proliferation assay was performed using human saphenous vein smooth muscle cells (HSV-SMC) with cells at passage 3-5. HSV-SMC were established in 96-well plates for 24 hours then serum starved for 48 hours. […] A positive control (100%) was set for cells exposed to DMEM supplemented with 20% FBS only while a negative control (0%) was set for cells exposed to only unsupplemented DMEM. Cells were stimulated for 72 hours with the anti-proliferative drug containing culture media. A solution of [3-(4,5-dimethylthiazol-2-yl)-5-(3-carboxymethoxyphenyl)-2-(4-sulfophenyl)-2H-tetrazolium](MTS, a cell proliferation marker) is then added onto the cells for 3 hours. Absorbance at 490 nm is recorded using a 96-well plate reader.

[2] = for residual tritiated actinomycin D remaining on the discs following 8 days of elution: physiological medium
Protocol: In FIG. 1, the electrochemical cell 10 is a standard three-electrode setup. A saturated Calomel electrode (SCE) was used as the reference electrode 12 and the counter electrode 14 was a circular platinum foil (3 cm^2). A 316L stainless steel disk (0.8 cm^2 area) connected to a platinum wire 16 was used as the working electrode 18. The cell was filled with an aqueous electrodeposition solution composed of 5 mM sulfuric acid and 20 mM of an aryldiazonium-containing molecule as described in FIG. 2 for the cyclic voltammetry electrochemical process. The electrodeposition of the aryldiazonium onto the stainless steel device was applied using 2 consecutive cyclic scans ranging from −0.5 V to −1.75 V relatively to the SCE reference electrode. The current-voltage response was followed on a XY recorder. Following electrodeposition, the device was consecutively washed with water and acetonitrile to remove impurities.
FIG. 5 illustrates the necessity of the presence of a molecule containing a diazonium moiety to retain tritiated actinomycin D deposited on the surface of stainless steel 316L discs. In this experiment, stainless steel 316L discs, which are made out of the same material as the stainless steel stents and other endovascular devices, are either functionalized with 4-bromobenzenediazonium or left bare. The discs are then exposed to a solution containing 30 μg of tritiated actinomycin D whereas the solvent is acetonitrile or ethanol. Following dipping, the discs are left to dry at room temperature until the solvent evaporates. The discs are first washed in deionized water for 5 minutes followed by a 5-minute wash in a physiologic solution. The discs are then counted in a scintillation counter.
FIG. 6 illustrates the loading and retention capacity of tritiated actinomycin D immobilized as described previously onto stainless steel 316L discs, with the exception however that water was also used as solvent for immobilizing tritiated actinomycin D. Following immobilization, the discs were first washed for 5 minutes in deionized water followed by a 5-minute wash in a physiologic solution. The loading of tritiated actinomycin D onto the stainless steel discs varied according of the type of solvent used: acetonitrile>ethanol>water.
FIG. 7 illustrates the effect of varying concentrations of the 4-bromobenzenediazonium solution on the loading and retention of 30 μg of tritiated actinomycin D following 8 days of elution in a physiological medium. Stainless steel 316L discs were exposed to varying concentrations of 4-bromobenzenediazonium solution before electrodeposition with the set-up as described in FIG. 1. Actinomycin D loading in the ethanol solution increased 1.6 fold, from 4324±329 for […] to 7146±80 for 20 mM. […]

[3] = system: human saphenous vein smooth muscle cells (HSV-SMC); format: cell-based; conditions: bromobenzenediazonium coated discs only, no drug
Protocol: as §1

[4] = Homo sapiens, HSV-SMC passage 3-5, 20% FBS, 72 hours, MTS absorbance 490 nm

Question: With `Cc1c2oc3c(C)ccc(C(=O)N[C@@H]4C(=O)N[C@H](C(C)C)C(=O)N5CCC[C@H]5C(=O)N(C)CC(=O)N(C)[C@@H](C(C)C)C(=O)O[C@@H]4C)c3nc-2c(C(=O)N[C@@H]2C(=O)N[C@H](C(C)C)C(=O)N3CCC[C@H]3C(=O)N(C)CC(=O)N(C)[C@@H](C(C)C)C(=O)O[C@@H]2C)c(N)c1=O` [actinomycin D] (I: T[dV]P[Sar][NMeV] / II: T[dV]P[Sar][NMeV]; ester I:1-I:C, II:1-II:C; linker I:N-II:N via Actinocin(9to1)) as the molecule, how does the IC50 ([1]; HSV-SMC passage 3-5, 20% FBS, 72 hours, MTS absorbance 490 nm) read?
Answer: 0.081 nM

Question: What about the “residual tritiated actinomycin D remaining on the discs following 8 days of elution” value ([2]; 0.02 mM 4-bromobenzenediazonium) of the same molecule?
Answer: 348±52

Question: What about the “residual tritiated actinomycin D remaining on the discs following 8 days of elution” value ([2]; 20 mM 4-bromobenzenediazonium) of the same molecule?
Answer: 2539±43

Question: What about the “drug remaining on the discs after 10 days of elution” value ([2]; 4-bromobenzenediazonium functionalized discs loaded with acetonitrile, physiological solution) of the same molecule?
Answer: ~20%

Question: And the “drug remaining on discs following 10 days of elution” value ([2]; functionalized discs loaded with acetonitrile or ethanol)?
Answer: substantial amounts

Question: For `COc1cccc2c1C(=O)c1c(O)c3c(c(O)c1C2=O)C[C@@](O)(C(=O)CO)C[C@@H]3O[C@H]1C[C@H](N)[C@H](O)[C@H](C)O1` [doxorubicin], which IC50 [1, 4] is on record?
Answer: 8 nM

Question: For `F[B-](F)(F)F.N#[N+]c1ccc(Br)cc1` [molecule 5, 4-bromobenzenediazonium tetrafluoroborate], which “effect of elution on cell proliferation” value [3] is on record?
Answer: does not inhibit cell proliferation

Question: Which IC50 [1, 4] does the source give for `CC(=O)O[C@H]1C(=O)[C@@]2(C)[C@H]([C@H](OC(=O)c3ccccc3)[C@]3(O)C[C@H](OC(=O)[C@H](O)[C@@H](NC(=O)c4ccccc4)c4ccccc4)C(C)=C1C3(C)C)[C@]1(OC(C)=O)CO[C@@H]1C[C@@H]2O` [paclitaxel] here?
Answer: 48 nM

Question: Which IC50 ([1]; Homo sapiens, 72 h) does the source give for `CO[C@H]1C[C@@H]2CC[C@@H](C)[C@@](O)(O2)C(=O)C(=O)N2CCCC[C@H]2C(=O)O[C@H]([C@H](C)C[C@@H]2CC[C@@H](O)[C@H](OC)C2)CC(=O)[C@H](C)/C=C(\C)[C@@H](O)[C@@H](OC)C(=O)[C@H](C)C[C@H](C)/C=C/C=C/C=C/1C` [rapamycin] here?
Answer: 0.12 nM

Question: Which IC50 [1, 4] does the source give for `CC[C@]1(O)C[C@@H]2CN(CCc3c([nH]c4ccccc34)[C@@](C(=O)OC)(c3cc4c(cc3OC)N(C)[C@H]3[C@@](O)(C(=O)OC)[C@H](OC(C)=O)[C@]5(CC)C=CCN6CC[C@]43[C@@H]65)C2)C1` [vinblastine] here?
Answer: 0.74 nM

Question: With `CC[C@]1(O)C[C@H]2CN(CCc3c([nH]c4ccccc34)[C@@](C(=O)OC)(c3cc4c(cc3OC)N(C=O)[C@H]3[C@@](O)(C(=O)OC)[C@H](OC(C)=O)[C@]5(CC)C=CCN6CC[C@]43[C@@H]65)C2)C1` [vincristine] as the molecule, how does the IC50 ([1]; Homo sapiens, 72 h) read?
Answer: 0.82 nM
